# Results reported in US9610285B2, “Compositions for controlling food intake and uses therefor” (UNIVERSITY OF FLORIDA RESEARCH FOUNDATION, INCORPORATED, priority 2011, dated 2017).
# Counter-ions that a name gives are not always drawn. Marks after values point to notes of the source that are not given here.
# Tests used:
# Format in all cases: in vivo, rat
# Male Sprague-Dawley rats [1] = assay: Palatable food intake following drug injections in binge-eating rats (Example 2); details: for Effect on palatable food (fat) intake, in words / Effect on palatable food (sugar) intake, in words / Effect on palatable food (sugar-fat) intake, in words: one-way ANOVA over saline, low and high dose
# Source text: (§1) Male Sprague-Dawley rats, 250-300 g at the onset of the experiment, were obtained from Taconic Farms (Germantown, N.Y., USA). Rats were housed individually on a 12-h reversed light/dark cycle and given 1 wk to acclimate before diet training began.
# (§2) The rats were divided into groups (n=10/group) matched for body weight and assigned to one of the following dietary conditions: (1) Binge Sugar, (2) Binge Fat or (3) Binge Sugar-Fat. All rats received palatable diets and standard rodent chow (LabDiet #5001, PMI Nutrition International, Richmond, Ind., USA; 10% fat, 20% protein, 70% carbohydrate, 3.02 kcal/g) for 12 h/day, starting 4 h after the onset of the dark cycle. Water was available ad libitum.
# (§3) All palatable foods were mixed in the laboratory. The Binge Sugar group had access to a 10% (w/v) sucrose solution (Domino® Granulated Pure Cane Sugar, dissolved in tap water, 0.4 kcal/mL), the Binge Fat group had access to a 35% (w/v) fat emulsion (3.1 kcal/mL) and the Binge Sugar-Fat group had access to a 10% (w/v) sugar solution and 35% (w/v) fat emulsion (3.5 kcal/mL). Both emulsions were made with Wesson® Pure Vegetable Oil in tap water and 0.6% (w/v) Emplex, a commercially available emulsifier (American Ingredients Company, Kansas City, Mo., USA). Palatable food intakes were recorded daily. Chow intake was recorded weekly. Body weights were taken at the beginning and end of the 21-day diet period.
# (§4) After 21 days on these diets, drug testing began. During testing, diet regimens were maintained. Approximately 3.5 h into the dark cycle, animals were weighed and intraperitoneal (i.p.) injections of drug were given (according to the schedule below). 30 min later (4 h into the dark cycle) palatable food and chow were made available to the rats. For the first 3 days, rats were acclimated to handling and daily vehicle injections (0.9% saline, Hospira, Lake Forest, Ill., USA, i.p. 1 mL/kg). For days 4-16 of drug testing, either vehicle or drug was alternatively administered, starting with drug on day 4. […] Intake of palatable food and chow was measured hourly after injection for 4 h and again at the end of the 12-h access period.
# (§5) Palatable food and standard chow intakes following saline injections between days 4-16 were averaged. All data were analyzed using one-way ANOVAs with post hoc Multiple Comparisons, when appropriate. In Tables 4-7, values having the same letter superscript are statistically different from one another.
# Male Sprague-Dawley rats [2] = assay: Standard chow intake following drug injections in binge-eating rats (Example 2); details: for Effect on standard chow intake, in words: one-way ANOVA over saline, low and high dose
# Source text: as §1, §2, §3, §4, §5
# Male Sprague-Dawley rats [3] = assay: Total caloric intake following drug injections in binge-eating rats (Example 2); details: for Effect on total caloric intake, in words: one-way ANOVA over saline, low and high dose
# Source text: as §1, §2, §3, §4, §5
# rats = assay: Binge eating rats, palatable food and chow intake (Example 1, FIGS. 1-5); details: drug alone, i.p., figure legends
# Protocol: Baclofen (at 1.0 and 1.8 mg/kg, administered i.p.)
# Baclofen+naltrexone (mixed low and mixed high)
# 1. Binge Sugar (10% sucrose solution, w/v)
# 2. Binge Fat (35% oil emulsion, w/v)
# 3. Binge Sugar/Fat (10% sucrose, 35% oil emulsion, w/v)
# Groups of animals (rats) were maintained on their diets for 3 weeks to establish stable binge eating behavior. After this period of time, the rats were administered three days of daily i.p. injections of saline (to acclimate to the injection procedure), and sugar/chow intake was measured after the first hour of access and then hourly for the next 3 hours, as well as at the end of the 12-h access period. After this three-day period, rats were given baclofen+naloxone, and measurements taken as described above. Other dosage amounts of baclofen and naloxone were tested, as were the effects of these compounds alone (with measurements being performed as described above). Vehicle injections were performed between the various tests in order to allow for suitable clearance of compounds from the animals. […] Thus, the treatment appears ideally suited for food addicts, hedonic overeaters and changes food choice but not appetite.
# [4] = Binge Fat group, 1 h, high dose (naltrexone 1.0 mg/kg, baclofen 1.8 mg/kg, or both, i.p.)
# [5] = Binge Fat group, 1 h, low dose (naltrexone 0.1 mg/kg, baclofen 1.0 mg/kg, or both, i.p.)
# [6] = Binge Fat group, 12 h, high dose (naltrexone 1.0 mg/kg, baclofen 1.8 mg/kg, or both, i.p.)
# [7] = Binge Fat group, 12 h, low dose (naltrexone 0.1 mg/kg, baclofen 1.0 mg/kg, or both, i.p.)
# [8] = Binge Sugar group, 1 h, high dose (naltrexone 1.0 mg/kg, baclofen 1.8 mg/kg, or both, i.p.)
# [9] = Binge Sugar group, 1 h, low dose (naltrexone 0.1 mg/kg, baclofen 1.0 mg/kg, or both, i.p.)
# [10] = Binge Sugar group, 12 h, high dose (naltrexone 1.0 mg/kg, baclofen 1.8 mg/kg, or both, i.p.)
# [11] = Binge Sugar group, 12 h, low dose (naltrexone 0.1 mg/kg, baclofen 1.0 mg/kg, or both, i.p.)
# [12] = Binge Sugar-Fat group, 1 h, high dose (naltrexone 1.0 mg/kg, baclofen 1.8 mg/kg, or both, i.p.)
# [13] = Binge Sugar-Fat group, 1 h, low dose (naltrexone 0.1 mg/kg, baclofen 1.0 mg/kg, or both, i.p.)
# [14] = Binge Sugar-Fat group, 12 h, high dose (naltrexone 1.0 mg/kg, baclofen 1.8 mg/kg, or both, i.p.)
# [15] = Binge Sugar-Fat group, 12 h, low dose (naltrexone 0.1 mg/kg, baclofen 1.0 mg/kg, or both, i.p.)
structure (smiles),measurement,setting,value
"O=C1CC[C@@]2(O)[C@H]3Cc4ccc(O)c5c4[C@@]2(CCN3CC2CC2)[C@H]1O5 [Naltrexone, naltrexone hydrochloride]",1-H Palatable Food Intake,Male Sprague-Dawley rats [1]; [4],9.9 ± 2.0 kcal
same,"Palatable food intake as a percent of intake after saline injections, 1-H Intake (%)",Male Sprague-Dawley rats [1]; [4],59%
same,"Palatable food intake as a percent of intake after saline injections, 1-H Intake (%)",Male Sprague-Dawley rats [1]; [5],70%
same,"Effect on palatable food (fat) intake, in words","Male Sprague-Dawley rats [1]; Binge Fat group, 1 h",no significant effect
same,12-H Palatable Food Intake,Male Sprague-Dawley rats [1]; [6],53.3 ± 4.5 kcal
same,"Palatable food intake as a percent of intake after saline injections, 12-H Intake (%)",Male Sprague-Dawley rats [1]; [6],91%
same,12-H Palatable Food Intake,Male Sprague-Dawley rats [1]; [7],49.9 ± 3.6 kcal
same,"Palatable food intake as a percent of intake after saline injections, 12-H Intake (%)",Male Sprague-Dawley rats [1]; [7],85%
same,"Effect on palatable food (fat) intake, in words","Male Sprague-Dawley rats [1]; Binge Fat group, 12 h",no significant effect
same,1-H Palatable Food Intake (Kcal),Male Sprague-Dawley rats [1]; [8],2.6 ± 0.4^a Kcal
same,"Palatable food intake as a percent of intake after saline injections, 1-H Intake (%)",Male Sprague-Dawley rats [1]; [8],92%
same,1-H Palatable Food Intake (Kcal),Male Sprague-Dawley rats [1]; [9],4.4 ± 0.7^a Kcal
same,"Palatable food intake as a percent of intake after saline injections, 1-H Intake (%)",Male Sprague-Dawley rats [1]; [9],158%
same,"Effect on palatable food (sugar) intake, in words","Male Sprague-Dawley rats [1]; Binge Sugar group, 1 h",significantly decreased
same,12-H Palatable Food Intake (Kcal),Male Sprague-Dawley rats [1]; [10],10.8 ± 1.8^r Kcal
same,"Palatable food intake as a percent of intake after saline injections, 12-H Intake (%)",Male Sprague-Dawley rats [1]; [10],85%
same,12-H Palatable Food Intake (Kcal),Male Sprague-Dawley rats [1]; [11],18.7 ± 2.4^r Kcal
same,"Palatable food intake as a percent of intake after saline injections, 12-H Intake (%)",Male Sprague-Dawley rats [1]; [11],92%
same,"Effect on palatable food (sugar) intake, in words","Male Sprague-Dawley rats [1]; Binge Sugar group, 12 h",significantly decreased
same,1-H Palatable Food Intake,Male Sprague-Dawley rats [1]; [12],17.6 ± 3.5 kcal
same,"Palatable food intake as a percent of intake after saline injections, 1-H Intake (%)",Male Sprague-Dawley rats [1]; [12],75%
same,1-H Palatable Food Intake,Male Sprague-Dawley rats [1]; [13],17.3 ± 1.7 kcal
same,"Palatable food intake as a percent of intake after saline injections, 1-H Intake (%)",Male Sprague-Dawley rats [1]; [13],74%
same,"Effect on palatable food (sugar-fat) intake, in words","Male Sprague-Dawley rats [1]; Binge Sugar-Fat group, 1 h",no effect
same,12-H Palatable Food Intake,Male Sprague-Dawley rats [1]; [14],83.3 ± 8.1 kcal
same,"Palatable food intake as a percent of intake after saline injections, 12-H Intake (%)",Male Sprague-Dawley rats [1]; [14],109%
same,12-H Palatable Food Intake,Male Sprague-Dawley rats [1]; [15],70.6 ± 3.4 kcal
same,"Palatable food intake as a percent of intake after saline injections, 12-H Intake (%)",Male Sprague-Dawley rats [1]; [15],92%
same,"Effect on palatable food (sugar-fat) intake, in words","Male Sprague-Dawley rats [1]; Binge Sugar-Fat group, 12 h",no effect
same,1-H Chow Intake,Male Sprague-Dawley rats [2]; [4],10.1 ± 1.2 kcal
same,1-H Chow Intake,Male Sprague-Dawley rats [2]; [5],8.5 ± 1.1 kcal
same,12-H Chow Intake,Male Sprague-Dawley rats [2]; [6],37.0 ± 3.4 kcal
same,12-H Chow Intake,Male Sprague-Dawley rats [2]; [7],34.1 ± 4.3 kcal
same,1-H Chow Intake,Male Sprague-Dawley rats [2]; [8],20.1 ± 1.3 kcal
same,1-H Chow Intake,Male Sprague-Dawley rats [2]; [9],25.5 ± 3.2 kcal
same,12-H Chow Intake (Kcal),Male Sprague-Dawley rats [2]; [10],78.6 ± 4.7^b Kcal
same,12-H Chow Intake (Kcal),Male Sprague-Dawley rats [2]; [11],73.7 ± 5.1^a Kcal
same,1-H Chow Intake,Male Sprague-Dawley rats [2]; [12],7.1 ± 0.9 kcal
same,1-H Chow Intake,Male Sprague-Dawley rats [2]; [13],6.6 ± 1.0 kcal
same,"Effect on standard chow intake, in words","Male Sprague-Dawley rats [2]; Binge Sugar-Fat group, 1 h",no effect
same,12-H Chow Intake,Male Sprague-Dawley rats [2]; [14],27.4 ± 2.6 kcal
same,12-H Chow Intake,Male Sprague-Dawley rats [2]; [15],26.4 ± 1.9 kcal
same,"Effect on standard chow intake, in words","Male Sprague-Dawley rats [2]; Binge Sugar-Fat group, 12 h",no effect
same,"Effect on standard chow intake, in words","Male Sprague-Dawley rats [2]; Fat group, 1 h",no effect
same,"Effect on standard chow intake, in words","Male Sprague-Dawley rats [2]; Fat group, 12 h",no effect
same,"Effect on standard chow intake, in words","Male Sprague-Dawley rats [2]; Sugar group, 1 h",no effect
same,"Effect on standard chow intake, in words","Male Sprague-Dawley rats [2]; Sugar group, 12 h",stimulated chow intake
same,1-H Total Caloric Intake,Male Sprague-Dawley rats [3]; [4],19.9 ± 3.2 kcal
same,1-H Total Caloric Intake,Male Sprague-Dawley rats [3]; [5],20.2 ± 3.0 kcal
same,12-H Total Caloric Intake,Male Sprague-Dawley rats [3]; [6],90.3 ± 8.3 kcal
same,12-H Total Caloric Intake,Male Sprague-Dawley rats [3]; [7],84.0 ± 7.9 kcal
same,1-H Total Caloric Intake,Male Sprague-Dawley rats [3]; [8],22.6 ± 1.7 kcal
same,1-H Total Caloric Intake (Kcal),Male Sprague-Dawley rats [3]; [9],29.9 ± 3.9^a Kcal
same,12-H Total Caloric Intake,Male Sprague-Dawley rats [3]; [10],89.4 ± 6.4 kcal
same,12-H Total Caloric Intake,Male Sprague-Dawley rats [3]; [11],85.4 ± 7.5 kcal
same,1-H Total Caloric Intake,Male Sprague-Dawley rats [3]; [12],24.8 ± 4.4 kcal
same,1-H Total Caloric Intake,Male Sprague-Dawley rats [3]; [13],23.9 ± 2.7 kcal
same,12-H Total Caloric Intake,Male Sprague-Dawley rats [3]; [14],110.7 ± 10.7 kcal
same,12-H Total Caloric Intake,Male Sprague-Dawley rats [3]; [15],97.0 ± 5.7 kcal
same,"Effect on total caloric intake, in words","Male Sprague-Dawley rats [3]; Fat group, 1 h",no effect
same,"Effect on total caloric intake, in words","Male Sprague-Dawley rats [3]; Fat group, 12 h",no effect
same,"Effect on total caloric intake, in words","Male Sprague-Dawley rats [3]; Sugar group, 1 h",significantly increased
same,"Effect on total caloric intake, in words","Male Sprague-Dawley rats [3]; Sugar group, 12 h",differences were no longer evident
same,"Effect on total caloric intake, in words","Male Sprague-Dawley rats [3]; Sugar-Fat group, 1 h",no effect
same,"Effect on total caloric intake, in words","Male Sprague-Dawley rats [3]; Sugar-Fat group, 12 h",no effect
same,Effect on intake of oil-containing palatable foods,"rats; oil containing groups (Binge Fat, Binge Sugar/Fat)",trend toward reducing food intake
same,Effect on binge eating of sugar,rats; sugar-binging rats,no effect
